45 compounds from US8778966B2, “Quinolinone derivatives as PARP and tank inhibitors” (Janssen Pharmaceutica, NV, priority 2007, dated 2014) can be followed below.

Read-outs that look alike come from different tables or passages of the source.

One experiment deals with T1, TANK-2 enzyme (Homo sapiens, UniProt Q9H2K2).
T1 construct: made in house
T1 sequence (Q9H2K2 1-1166): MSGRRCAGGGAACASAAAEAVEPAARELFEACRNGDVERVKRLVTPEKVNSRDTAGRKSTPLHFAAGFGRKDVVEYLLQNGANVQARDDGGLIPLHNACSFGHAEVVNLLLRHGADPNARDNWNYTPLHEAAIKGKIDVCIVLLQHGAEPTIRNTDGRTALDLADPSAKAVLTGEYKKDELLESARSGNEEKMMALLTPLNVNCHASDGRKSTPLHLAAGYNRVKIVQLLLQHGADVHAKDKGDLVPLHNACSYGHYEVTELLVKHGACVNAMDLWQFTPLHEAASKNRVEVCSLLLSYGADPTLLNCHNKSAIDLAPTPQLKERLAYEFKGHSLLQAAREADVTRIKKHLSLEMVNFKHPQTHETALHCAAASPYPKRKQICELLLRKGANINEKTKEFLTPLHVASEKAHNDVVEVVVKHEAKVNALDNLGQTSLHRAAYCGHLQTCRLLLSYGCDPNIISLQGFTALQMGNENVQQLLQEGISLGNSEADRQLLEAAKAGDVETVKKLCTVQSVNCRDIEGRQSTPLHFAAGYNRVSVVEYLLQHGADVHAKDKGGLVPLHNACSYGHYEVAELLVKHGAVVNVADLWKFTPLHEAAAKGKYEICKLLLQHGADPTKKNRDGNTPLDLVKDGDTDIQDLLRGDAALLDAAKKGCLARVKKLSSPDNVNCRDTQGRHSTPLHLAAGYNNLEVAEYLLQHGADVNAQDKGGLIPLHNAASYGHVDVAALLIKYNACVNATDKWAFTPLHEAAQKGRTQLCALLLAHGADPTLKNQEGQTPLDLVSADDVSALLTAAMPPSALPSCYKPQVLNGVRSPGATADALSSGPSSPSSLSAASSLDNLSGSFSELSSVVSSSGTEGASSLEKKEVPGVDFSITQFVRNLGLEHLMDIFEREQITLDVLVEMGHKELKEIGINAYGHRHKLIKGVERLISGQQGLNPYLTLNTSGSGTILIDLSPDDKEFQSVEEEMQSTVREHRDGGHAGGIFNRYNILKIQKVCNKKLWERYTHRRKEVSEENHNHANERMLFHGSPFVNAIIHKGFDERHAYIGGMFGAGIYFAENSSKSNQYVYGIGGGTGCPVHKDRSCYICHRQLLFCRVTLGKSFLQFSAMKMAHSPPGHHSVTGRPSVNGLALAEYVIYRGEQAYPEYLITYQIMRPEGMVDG
In words: In vitro Scintillation Proximity Assay (SPA) for TANK-2 inhibitory activity. It is filed as biochemical. In a few lines: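 Results are pIC50 values, with IC50 interpolated linearly around 50% of blank-subtracted control cpm. They come from a scintillation proximity read of TANK-2 (8 μg/ml) self-modification with [3H]-NAD+/NAD, incubated 120 min at room temperature in pH 7.4 Tris buffer containing MgCl2 and DTT. Compounds were first screened at 10^−5 M.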

The test system of a further experiment is PC3 cells. The experiment can be described thus: EB1 Comet (microtubule disruption) assay. It is filed as cell-based, human. Conditions: Homo sapiens, PC-3, 1 h, 1 hour treatment, read-out: EB1 pLAC (converted). The gist of the method: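 Readout is loss of Eb1 plus-end foci, scored by immunofluorescence microscopy, in PC3 cells after 1 h compound treatment at 37 °C with 0.6% final DMSO. LAC is defined as the lowest concentration leaving at least 50% of cells without Eb1 foci.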

Where [1] appears, read: read-out: in vitro SPA assay TANK-2 pIC50 (converted).

On TANK-2 enzyme (in vitro SPA assay TANK-2 pIC50), `CCc1cc2ccc(C(C)(C#N)Cc3nc(C#N)cc(OC)n3)cc2[nH]c1=O` (single isomer, unassigned) [Compound 204] had an IC50 of 158 nM. Consider `CCc1cc2c(OC)cc(C(C)(C#N)Cc3nc(OC)cc(OC)n3)cc2[nH]c1=O` (single isomer, unassigned) [Compound 230], for which the minimal effective concentration in the experiment with PC3 cells was 1 µM. Also, the IC50 at TANK-2 enzyme (setting [1]) was 20 nM.

Regarding `CCc1cc2ccc([C@@](C)(C#N)CCOc3ccc(C#N)cc3)cc2[nH]c1=O` (single isomer, unassigned) [Compound 273], the minimal effective concentration in the experiment with PC3 cells is 0.1 µM. The IC50 on TANK-2 enzyme (setting [1]) was 100 nM.

Take `CCc1cc2ccc([C@](C)(C#N)CCOc3ccc(C#N)cc3)cc2[nH]c1=O` (single isomer, unassigned) [Compound 275]: the IC50 at TANK-2 enzyme (setting [1]) is 63.1 nM.

As to `CCc1cc2ccc([C@](C)(C#N)Cc3cccc(/C=C/S(C)(=O)=O)c3)cc2[nH]c1=O` (single isomer, unassigned) [Compound 291], on TANK-2 enzyme (setting [1]), the IC50 is 126 nM. On the same count and under the same terms, then `CCc1cc2ccc([C@@](C)(C#N)Cc3cccc(C#CCO)c3)cc2[nH]c1=O` (single isomer, unassigned) [Compound 295], with 126 nM; and `CCc1cc2ccc([C@](C)(C#N)Cc3cccc(C#CCO)c3)cc2[nH]c1=O` (single isomer, unassigned) [Compound 296], with 200 nM.

On to `CCc1cc2ccc([C@@](C)(C#N)Cc3cc(OC)nc(C)n3)cc2[nH]c1=O` (single isomer, unassigned) [Compound 361], for which, at TANK-2 enzyme (setting [1]), the IC50 was 50.1 nM. Still for that read-out and setting: as for `CCc1cc2ccc([C@](C)(C#N)Cc3cc(OC)nc(C)n3)cc2[nH]c1=O` (single isomer, unassigned) [Compound 362], the figure is 126 nM. With `Cc1cc2ccc([C@@](C)(C#N)C3CCc4ccccc43)cc2[nH]c1=O` (single isomer, unassigned) [Compound 385], the minimal effective concentration in the experiment on PC3 cells was 10 µM. Also, the IC50 at TANK-2 enzyme (setting [1]) is 2000 nM.

Turning to `Cc1cc2ccc([C@](C)(C#N)C3CCc4ccccc43)cc2[nH]c1=O` (single isomer, unassigned) [Compound 386], the minimal effective concentration with PC3 cells is 0.316 µM. Also, at TANK-2 enzyme (setting [1]), the IC50 was 1260 nM. Consider `CCc1cc2ccc(C(C)(C#N)Cc3cccc(OCCCN4CCNCC4)c3)cc2[nH]c1=O` (stereo not drawn) [Compound 25], for which the minimal effective concentration with PC3 cells is > 10 µM. At TANK-2 enzyme (setting [1]), the IC50 was 50.1 nM.

Regarding `CCc1cc2ccc(C(C#N)(Cc3ccccc3)c3ccc(C#N)cc3)cc2[nH]c1=O` (stereo not drawn) [Compound 26], the minimal effective concentration in the experiment with PC3 cells is > 10 µM. Also, the IC50 at TANK-2 enzyme (setting [1]) was 251 nM. In the case of `CCc1cc2ccc(C(C#N)(Cc3ccccc3)c3ccccc3)cc2[nH]c1=O` (stereo not drawn) [Compound 27], the minimal effective concentration in the experiment on PC3 cells is 10 µM. Moreover, the IC50 at TANK-2 enzyme (setting [1]) is 631 nM. For `CCc1cc2ccc(C(C#N)(Cc3ccccc3)C3CC3)cc2[nH]c1=O` (stereo not drawn) [Compound 29], in that order: 1 µM and 31.6 nM. For `CCc1cc2ccc(C(C#N)(Cc3ccccc3)C(C)C)cc2[nH]c1=O` (stereo not drawn) [Compound 30], in that order: 3.16 µM and 794 nM. For `CCCC(C#N)(Cc1ccccc1)c1ccc2cc(CC)c(=O)[nH]c2c1` (stereo not drawn) [Compound 31], in that order: 10 µM and 251 nM.

Consider `CCc1cc2ccc(C(C)(C#N)Cc3cc(OC)ccc3F)cc2[nH]c1=O` (stereo not drawn) [Compound 171], for which the minimal effective concentration in the experiment with PC3 cells is 0.1 µM. Moreover, the IC50 on TANK-2 enzyme (setting [1]) is 200 nM. For `CCc1cc2ccc(C(C)(C#N)Cc3cccc(-c4ccc[nH]4)c3)cc2[nH]c1=O` (stereo not drawn) [Compound 176], in that order: 1 µM and 158 nM. For `CCc1cc2ccc(C(C)(C#N)Cc3cccc(CCS(C)(=O)=O)c3)cc2[nH]c1=O` (stereo not drawn) [Compound 178], in that order: 3.16 µM and 200 nM.

Consider `Cc1cc2ccc(C(C)(C#N)Cc3cccc(C=Cc4ccccc4)c3)cc2[nH]c1=O` (stereo not drawn) [Compound 179], for which the minimal effective concentration with PC3 cells is 1.78 µM. Further, the IC50 on TANK-2 enzyme (setting [1]) is 2510 nM. For the compound `CCc1cc2ccc(C(C)(C#N)Cc3cccc(/C=N/OC)c3)cc2[nH]c1=O` (stereo not drawn) [Compound 185], the minimal effective concentration with PC3 cells is 0.1 µM. The IC50 at TANK-2 enzyme (setting [1]) was 158 nM. For `CCc1cc2ccc(C(C)(C#N)Cc3cccc(C(=N)NO)c3)cc2[nH]c1=O` (stereo not drawn) [Compound 186], in that order: 3.16 µM and 79.4 nM.

As to `Cc1cc2ccc(C(C)(C#N)Cc3cccc(Oc4ccc(F)cc4)c3)cc2[nH]c1=O` (stereo not drawn) [Compound 192], the minimal effective concentration in the experiment with PC3 cells was 1 µM. Regarding `CCc1cc2ccc(C(C)(C#N)Cc3cccc(OCCCC#N)c3)cc2[nH]c1=O` (stereo not drawn) [Compound 194], in the experiment on PC3 cells, the minimal effective concentration is 1 µM. The IC50 at TANK-2 enzyme (setting [1]) was 126 nM.

`CCc1cc2ccc(C(C)(C#N)Cc3cccc(OCCC#N)c3)cc2[nH]c1=O` (stereo not drawn) [Compound 195]: the minimal effective concentration with PC3 cells is 0.0316 µM. Further, the IC50 at TANK-2 enzyme (setting [1]) is 398 nM. For `C#CCOc1cccc(CC(C)(C#N)c2ccc3cc(CC)c(=O)[nH]c3c2)c1` (stereo not drawn) [Compound 196], at TANK-2 enzyme (setting [1]), the IC50 was 316 nM. `CCc1cc2ccc(C(C)(C#N)COCc3ccccc3)cc2[nH]c1=O` (stereo not drawn) [Compound 197]: the IC50 on TANK-2 enzyme (setting [1]) is 63.1 nM.

As for `CCc1cc2ccc(C(C)(C#N)Cc3cccc(OCCS(C)(=O)=O)c3)cc2[nH]c1=O` (stereo not drawn) [Compound 201], in the experiment on PC3 cells, the minimal effective concentration was 0.562 µM. The IC50 at TANK-2 enzyme (setting [1]) is 200 nM. In the case of `CCc1cc2ccc(C(C)(C#N)Cc3nc(Cl)cc(OC)n3)cc2[nH]c1=O` (stereo not drawn) [Compound 202], the IC50 at TANK-2 enzyme (setting [1]) is 251 nM. As for `CCc1cc2ccc(C(C)(C#N)Cc3nc(N(C)C)cc(N(C)C)n3)cc2[nH]c1=O` (stereo not drawn) [Compound 205], the minimal effective concentration in the experiment on PC3 cells was 1 µM. For the same compound, the IC50 at TANK-2 enzyme (setting [1]) was 200 nM. Take `CCc1cc2ccc(C(C)(C#N)Cc3cccc(N4CCC(N(C)C)C4)n3)cc2[nH]c1=O` (stereo not drawn) [Compound 209]: the minimal effective concentration in the experiment with PC3 cells was 0.316 µM. Also, the IC50 at TANK-2 enzyme (setting [1]) was 501 nM. For `CCc1cc2ccc(C(C)(C#N)Cc3cccc(C#Cc4cncn4C)n3)cc2[nH]c1=O` (stereo not drawn) [Compound 217], in that order: 1 µM and 158 nM. Regarding `CCc1cc2ccc(C(C)(C#N)Cc3cccc(N(C)CCc4ccccc4)n3)cc2[nH]c1=O.Cl` (stereo not drawn) [Compound 220], in the experiment with PC3 cells, the minimal effective concentration was 3.16 µM. Moreover, the IC50 at TANK-2 enzyme (setting [1]) is 1000 nM.

In the case of `CCc1cc2ccc(C(C)(C#N)Cc3cccc(C#N)[n+]3[O-])cc2[nH]c1=O` (stereo not drawn) [Compound 228], the minimal effective concentration in the experiment on PC3 cells is 0.562 µM. In addition, at TANK-2 enzyme (setting [1]), the IC50 is 15.8 nM. On to `Cc1nc(-c2ccccc2)sc1CC(C)(C#N)c1ccc2cc(C)c(=O)[nH]c2c1` (stereo not drawn) [Compound 235], for which, at TANK-2 enzyme (setting [1]), the IC50 is 1000 nM. The same measure, in the same setting: then `CCc1cc2ccc(C(C)(C#N)Cc3cccc(C(=O)OC(C)C)c3)cc2[nH]c1=O` (stereo not drawn) [Compound 255], with 794 nM; and `CCc1cc2ccc(C(C)(C#N)Cc3cc(Br)cc(N(C)C)c3)cc2[nH]c1=O` (stereo not drawn) [Compound 260], with 251 nM.

As for `CCc1cc2ccc(C(C)(C#N)Cc3cc(C(C)C)ccc3OC)cc2[nH]c1=O` (stereo not drawn) [Compound 288], on TANK-2 enzyme (setting [1]), the IC50 is 1000 nM. The same measure, in the same setting: as for `CCc1cc2ccc(C(C)(C#N)Cc3cc(Cl)nc(N(C)C)c3)cc2[nH]c1=O` (stereo not drawn) [Compound 323], the figure is 251 nM; as for `CCc1cc2ccc(C(C)(C#N)Cc3cccc(NC)n3)cc2[nH]c1=O` (stereo not drawn) [Compound 339], 100 nM; as for `CCc1cc2ccc(C(C)(C#N)Cc3ccc4c(c3)OC(F)(F)O4)cc2[nH]c1=O` (stereo not drawn) [Compound 346], 501 nM. On to `CCc1cc2ccc(C(C)(C#N)Cc3nc(OC)cc(N(C)C)n3)cc2[nH]c1=O` (stereo not drawn) [Compound 355], for which the IC50 at TANK-2 enzyme (setting [1]) is 158 nM. Turning to `CCc1cc2ccc(C(C)(C#N)Cc3cccc4[nH]ccc34)cc2[nH]c1=O` (stereo not drawn) [Compound 379], the IC50 on TANK-2 enzyme (setting [1]) is 100 nM. The same measure, in the same setting: as for `Cc1cc2ccc(C(C)(C#N)Cc3cccc(/C=C/CCO)c3)cc2[nH]c1=O` (stereo not drawn) [Compound 409], the figure is 1000 nM.
